Where a name gives a salt, the structure may show the parent alone.
Experiments:
human 5-HT2A receptor = molecular target: T1, human 5-HT2A receptor (Homo sapiens, UniProt P28223); experiment: 5-HT2A FLIPR assay (calcium response to DOI) in CHO cells; assay type: cell-based; conditions: for IC50: antagonist inhibition of 3 nM DOI stimulation, CHO cells, FLIPR; for inhibition at 1 µM: CHO, read-out: 5-HT2A Percentage inhibition at 1 μM
T1 construct: expressed in transfected cells; host or cells: CHO
T1 sequence (P28223 whole entry): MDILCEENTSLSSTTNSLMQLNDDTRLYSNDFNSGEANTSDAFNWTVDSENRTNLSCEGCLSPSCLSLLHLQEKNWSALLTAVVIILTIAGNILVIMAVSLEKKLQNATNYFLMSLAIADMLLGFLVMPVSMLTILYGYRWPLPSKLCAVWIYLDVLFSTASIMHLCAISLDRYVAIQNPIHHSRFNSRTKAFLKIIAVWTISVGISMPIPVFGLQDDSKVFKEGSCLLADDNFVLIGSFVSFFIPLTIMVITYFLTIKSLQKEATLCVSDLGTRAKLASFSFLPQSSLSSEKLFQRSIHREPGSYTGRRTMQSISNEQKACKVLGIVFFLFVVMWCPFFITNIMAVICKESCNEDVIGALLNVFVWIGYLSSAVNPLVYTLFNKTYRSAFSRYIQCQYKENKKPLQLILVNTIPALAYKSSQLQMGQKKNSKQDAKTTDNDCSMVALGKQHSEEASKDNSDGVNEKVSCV
In short: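 CHO cells loaded with calcium dye in HBSS/20 mM HEPES; FLIPR fluorescence recorded after compound addition (10^−10–10^−5 M) for 2 min to detect agonism, then after 3 nM DOI challenge for 5 min for antagonism. Data log transformed before analysis.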

human hNET = molecular target: T2, human hNET (Homo sapiens, UniProt P23975); experiment: Norepinephrine (NE) uptake assay in MDCK-Net6 cells; assay type: cell-based; conditions: [3H]NE uptake; for inhibition at 1 µM: MDCK-Net6 cells, read-out: hNET Percentage inhibition at 1 μM; for EC50: MDCK-Net6 cells stably transfected with hNET
T2 construct: expressed in transfected cells; host or cells: MDCK (MDCK-Net6)
T2 sequence (P23975 whole entry): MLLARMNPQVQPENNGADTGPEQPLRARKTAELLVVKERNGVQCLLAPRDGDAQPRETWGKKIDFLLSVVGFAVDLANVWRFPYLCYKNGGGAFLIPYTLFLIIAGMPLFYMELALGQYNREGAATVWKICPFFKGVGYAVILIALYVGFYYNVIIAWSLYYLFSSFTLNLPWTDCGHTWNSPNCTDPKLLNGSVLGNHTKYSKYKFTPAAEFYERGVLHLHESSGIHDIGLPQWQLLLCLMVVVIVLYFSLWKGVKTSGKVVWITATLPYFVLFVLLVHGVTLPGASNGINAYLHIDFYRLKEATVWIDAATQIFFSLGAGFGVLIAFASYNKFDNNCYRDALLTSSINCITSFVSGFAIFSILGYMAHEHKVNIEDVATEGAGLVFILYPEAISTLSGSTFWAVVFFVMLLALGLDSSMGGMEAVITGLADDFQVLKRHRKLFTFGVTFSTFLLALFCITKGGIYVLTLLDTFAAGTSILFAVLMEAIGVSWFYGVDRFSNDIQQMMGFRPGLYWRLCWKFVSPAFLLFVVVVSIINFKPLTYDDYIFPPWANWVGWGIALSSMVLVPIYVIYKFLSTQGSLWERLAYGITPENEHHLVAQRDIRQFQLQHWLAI

| SMILES | IC50 (human 5-HT2A receptor) [nM] | inhibition at 1 µM (human hNET) [%] | inhibition at 1 µM (human 5-HT2A receptor) [%] | EC50 (human hNET) [nM] |
| --- | --- | --- | --- | --- |
| CC(C)NC[C@@H](O)[C@H](c1ccccc1)N1C(=O)C2(CCCCC2)c2ccc(F)cc21 [Example 97, 6′-fluoro-1′-[(1S,2R)-2-hydroxy-3-(isopropylamino)-1-phenylpropyl]spiro[cyclohexane-1,3′-indol]-2′(1′H)-one hydrochloride] |  | 0 | 44 |  |
| NC[C@@H](O)[C@H](c1ccccc1)N1C(=O)C2(CCCCC2)c2cc(F)ccc21 [Example 99, 1′-[(1S,2R)-3-amino-2-hydroxy-1-phenylpropyl]-5′-fluorospiro[cyclohexane-1,3′-indol]-2′(1′H)-one hydrochloride] |  | 11 | 7 |  |
| CC(C)NC[C@@H](O)[C@H](c1ccccc1)N1C(=O)C2(CCCCC2)c2cc(F)ccc21 [Example 101, 5′-fluoro-1′-[(1S,2R)-2-hydroxy-3-(isopropylamino)-1-phenylpropyl]spiro[cyclohexane-1,3′-indol]-2′(1′H)-one hydrochloride] |  | 0 | 22 |  |
| O=C1N([C@@H](c2ccccc2)[C@H](O)CN2CCOCC2)c2ccc(F)cc2C12CCCCC2 [Example 104, 5′-fluoro-1′-[(1S,2R)-2-hydroxy-3-morpholin-4-yl-1-phenylpropyl]spiro[cyclohexane-1,3′-indol]-2′(1′H)-one hydrochloride] |  | 13 | 22 |  |
| CNC[C@@H](O)[C@H](c1ccccc1)N1C(=O)C2(CCCCC2)c2cc(OC)ccc21 [Example 105, 1′-[(1S,2R)-2-hydroxy-3-(methylamino)-1-phenylpropyl]-5′-methoxyspiro[cyclohexane-1,3′-indol]-2′(1′H)-one hydrochloride] |  |  | 37 | 81 |

The next lines start with results.

| IC50 (human 5-HT2A receptor) [nM] | inhibition at 1 µM (human hNET) [%] | SMILES | inhibition at 1 µM (human 5-HT2A receptor) [%] | EC50 (human hNET) [nM] |
| --- | --- | --- | --- | --- |
| 462 | 48 | CCNC[C@@H](O)[C@H](c1ccccc1)N1C(=O)C2(CCCCC2)c2ccc(F)cc21 [Example 96, 1′-[(1S,2R)-3-(ethylamino)-2-hydroxy-1-phenylpropyl]-6′-fluorospiro[cyclohexane-1,3′-indol]-2′(1′H)-one hydrochloride] |  |  |
| 672 | 0 | CCCNC[C@@H](O)[C@H](c1ccccc1)N1C(=O)C2(CCCCC2)c2ccc(F)cc21 [Example 98, 6′-fluoro-1′-[(1S,2R)-2-hydroxy-1-phenyl-3-(propylamino)propyl]spiro[cyclohexane-1,3′-indol]-2′(1′H)-one hydrochloride] |  |  |
| 378 | 31 | CCNC[C@@H](O)[C@H](c1ccccc1)N1C(=O)C2(CCCCC2)c2cc(F)ccc21 [Example 100, 1′-[(1S,2R)-3-(ethylamino)-2-hydroxy-1-phenylpropyl]-5′-fluorospiro[cyclohexane-1,3′-indol]-2′(1′H)-one hydrochloride] |  |  |
| 895 | 0 | CCCNC[C@@H](O)[C@H](c1ccccc1)N1C(=O)C2(CCCCC2)c2cc(F)ccc21 [Example 102, 5′-fluoro-1′-[(1S,2R)-2-hydroxy-1-phenyl-3-(propylamino)propyl]spiro[cyclohexane-1,3′-indol]-2′(1′H)-one hydrochloride] |  |  |
| 77 | 19 | CN(C)C[C@@H](O)[C@H](c1ccccc1)N1C(=O)C2(CCCCC2)c2cc(F)ccc21 [Example 103, 1′-[(1S,2R)-3-(dimethylamino)-2-hydroxy-1-phenylpropyl]-5′-fluorospiro[cyclohexane-1,3′-indol]-2′(1′H)-one hydrochloride] |  |  |
| 615 |  | CNC[C@@H](O)[C@H](c1ccccc1)N1C(=O)C2(CCCCC2)c2ccc(OC)cc21 [Example 106, 1′-[(1S,2R)-2-hydroxy-3-(methylamino)-1-phenylpropyl]-6′-methoxyspiro[cyclohexane-1,3′-indol]-2′(1′H)-one hydrochloride] |  | 908 |

From US20070072897A1, “Phenylaminopropanol derivatives and methods of their use” (Wyeth, priority 2005, published 2007)
